In patent US20240408080A1, “PHARMACEUTICAL COMPOSITIONS OF CGRP INHIBITORS AND METHODS OF THEIR USE” (Pfizer Ireland Pharmaceuticals, priority 2021, published 2024):

Legend:
[1] = system: acute treatment of migraine; assay: Phase 2/3 clinical trial BHV3500-201 (Study 201), efficacy of intranasal zavegepant versus placebo; assay type: in vivo, human; details: for (2) Return to normal function at 2 hours posidose, Stratified Percentage Difference (Zavegepant − Placebo) / (7) Return to normal function at 60 minutes postdose, Stratified Percentage Difference (Zavegepant − Placebo) / (9) Return to normal function at 30 minutes postdose, Stratified Percentage Difference (Zavegepant − Placebo): subjects with functional disability at onset; for (9) Return to normal function at 30 minutes postdose, n/N (%): mITT subjects with functional disability at on-study migraine attack onset
[2] = pH-solubility profile (physical and chemical properties of drug substance); assay type: physicochemical; details: mono-hydrochloride salt
[3] = Phase 2/3 clinical trial BHV3500-201 (Study 201), safety, adverse events and liver function tests; assay type: in vivo, human
[4] = pKa (physical and chemical properties of drug substance); assay type: physicochemical
[5] = Phase 1 multiple ascending dose (MAD) study, intranasal, pharmacokinetics; assay type: in vivo, human; details: for AUC: human
Protocol: A Phase 1, single-center, randomized, double-blind, placebo-controlled, sequential multiple ascending dose (MAD) study with 2 alternate dosing arms was conducted. […] The MAD portion of the study consists of 4 cohorts, with a maximum dose of 20 mg administered once daily for up to 14 days in 3 cohorts, and 20 mg administered twice daily for up to 8 days in the fourth cohort.
In addition to the 4 MAD cohorts, there were 2 alternate dosing cohorts, each consisting of 1 day dosing. The first alternate dosing cohort assessed the effect of 2 sequential administrations of 20 mg (20 mg spray [100 μL of 200 mg/mL] in alternate nostrils); with a 30 minute interval between administrations. A 2nd alternate dosing cohort assessed the effect of 2 sequential administrations of 20 mg (20 mg spray [100 μL of 200 mg/mL] in alternate nostrils); with a nose blow and 5 minute interval between administrations.
The PK data were collected from subjects in Cohorts 1 to 4.

[6] = Zavegepant 5 mg Group vs placebo, CMH weighting, mITT subjects
[7] = Zavegepant 5 mg Group vs placebo, CMH weighting
[8] = Zavegepant 5 mg Group, intranasal single dose, mITT subjects
[9] = Zavegepant 10 mg Group vs placebo, CMH weighting, mITT subjects
[10] = Zavegepant 10 mg Group vs placebo, CMH weighting
[11] = Zavegepant 10 mg Group, intranasal single dose, mITT subjects
[12] = Zavegepant 20 mg Group vs placebo, CMH weighting, mITT subjects
[13] = Zavegepant 20 mg Group vs placebo, CMH weighting
[14] = Zavegepant 20 mg Group vs placebo, CMH weighting, subjects with symptom present at onset

Cc1cc(C[C@@H](NC(=O)N2CCC(c3cc4ccccc4[nH]c3=O)CC2)C(=O)N2CCN(C3CCN(C)CC3)CC2)cc2cn[nH]c12 [Zavegepant, (R)-N-(3-(7-methyl-1H-indazol-5-yl)-1-(4-(1-methylpiperidin-4-yl)piperazin-1-yl)-1-oxopropan-2-yl)-4-(2-oxo-1,2-dihydroquinolin-3-yl)piperidine-1-carboxamide]
Freedom from MBS (Most Bothersome Symptom), 2 Hour Endpoint ([1]; 5 mg single dose): 39.0%
Pain Relief at 15 Minutes Post-Dose, n/N (value in brackets) ([1]; 15 mg (so in the source), Prophylactic migraine medication use: Yes): 13/50 (24.0)
return to normal function ([1]; 20 mg): return to normal function as early as 30 minutes
onset of pain relief ([1]; 5, 10, and 20 mg single dose, stratified CMH tests, mITT): pain relief as early as 15 minutes post-dose
co-primary endpoints of pain freedom and freedom from MBS at 2 hours versus placebo ([1]; 10 and 20 mg single dose): statistically superior (p<0.05) to placebo
(1) Pain relief at 2 hours postdose, Stratified Percentage Difference (Zavegepant − Placebo) [1, 6]: 4.2%
(3) Rescue medication use within 24 hours postdose, Stratified Percentage Difference (Zavegepant − Placebo) [1, 6]: −2.4%
(4) Photophobia freedom at 2 hours postdose, Stratified Percentage Difference (Zavegepant − Placebo) [1, 6]: 4.6%
(6) Pain relief at 60 minutes postdose, Stratified Percentage Difference (Zavegepant − Placebo) [1, 6]: 5.1%
(8) Pain relief at 30 minutes postdose, Stratified Percentage Difference (Zavegepant − Placebo) [1, 6]: 1.9%
(10) Sustained pain relief from 2 to 24 hours postdose, Stratified Percentage Difference (Zavegepant − Placebo) [1, 6]: 8.0%
(11) Sustained pain freedom from 2 to 24 hours postdose, Stratified Percentage Difference (Zavegepant − Placebo) [1, 6]: 5.3%
(12) Sustained pain relief from 2 to 48 hours postdose, Stratified Percentage Difference (Zavegepant − Placebo) [1, 6]: 7.4%
(13) Sustained pain freedom from 2 to 48 hours postdose, Stratified Percentage Difference (Zavegepant − Placebo) [1, 6]: 5.5%
(2) Return to normal function at 2 hours posidose, Stratified Percentage Difference (Zavegepant − Placebo) [1, 7]: 4.3%
(7) Return to normal function at 60 minutes postdose, Stratified Percentage Difference (Zavegepant − Placebo) [1, 7]: 5.5%
(9) Return to normal function at 30 minutes postdose, Stratified Percentage Difference (Zavegepant − Placebo) [1, 7]: 3.4%
(14) Nausca freedom at 2 hours postdose, Stratified Percentage Difference (Zavegepant − Placebo) ([1]; Zavegepant 5 mg Group vs placebo, CMH weighting, subjects with symptom present at onset): 1.8%
(4) Photophobia freedom at 2 hours postdose, n/N (%) [1, 8]: 118/337 (35.0) %
(6) Pain relief at 60 minutes postdose, n/N (%) [1, 8]: 182/387 (47.0) %
(9) Return to normal function at 30 minutes postdose, n/N (%) ([1]; Zavegepant 5 mg Group, intranasal single dose): 32/363 (8.8) %
(1) Pain relief at 2 hours postdose, Stratified Percentage Difference (Zavegepant − Placebo) [1, 9]: 7.1%
(3) Rescue medication use within 24 hours postdose, Stratified Percentage Difference (Zavegepant − Placebo) [1, 9]: −1.1%
(4) Photophobia freedom at 2 hours postdose, Stratified Percentage Difference (Zavegepant − Placebo) [1, 9]: 5.1%
(6) Pain relief at 60 minutes postdose, Stratified Percentage Difference (Zavegepant − Placebo) [1, 9]: 4.2%
(8) Pain relief at 30 minutes postdose, Stratified Percentage Difference (Zavegepant − Placebo) [1, 9]: 5.3%
(10) Sustained pain relief from 2 to 24 hours postdose, Stratified Percentage Difference (Zavegepant − Placebo) [1, 9]: 6.8%
(11) Sustained pain freedom from 2 to 24 hours postdose, Stratified Percentage Difference (Zavegepant − Placebo) [1, 9]: 6.1%
(12) Sustained pain relief from 2 to 48 hours postdose, Stratified Percentage Difference (Zavegepant − Placebo) [1, 9]: 7.0%
(13) Sustained pain freedom from 2 to 48 hours postdose, Stratified Percentage Difference (Zavegepant − Placebo) [1, 9]: 6.3%
(2) Return to normal function at 2 hours posidose, Stratified Percentage Difference (Zavegepant − Placebo) [1, 10]: 7.1%
(7) Return to normal function at 60 minutes postdose, Stratified Percentage Difference (Zavegepant − Placebo) [1, 10]: 1.8%
(9) Return to normal function at 30 minutes postdose, Stratified Percentage Difference (Zavegepant − Placebo) [1, 10]: 2.1%
(15) Pain relapse from 2 to 48 hours postdose, Stratified Percentage Difference (Zavegepant − Placebo) ([1]; Zavegepant 10 mg Group vs placebo, CMH weighting, subjects with pain freedom at 2 hours postdose): −17.0%
(14) Nausca freedom at 2 hours postdose, Stratified Percentage Difference (Zavegepant − Placebo) ([1]; Zavegepant 10 mg Group vs placebo, CMH weighting, subjects with symptom present at onset): 2.9%
(3) Rescue medication use within 24 hours postdose, n/N (%) [1, 11]: 101/388 (26.0) %
(6) Pain relief at 60 minutes postdose, n/N (%) [1, 11]: 180/391 (46.0) %
(9) Return to normal function at 30 minutes postdose, n/N (%) ([1]; Zavegepant 10 mg Group, intranasal single dose): 27/354 (7.6) %
(15) Pain relapse from 2 to 48 hours postdose, n/N (%) ([1]; Zavegepant 10 mg Group, intranasal single dose, mITT subjects with pain freedom at 2 hours postdose): 29/88 (33.0) %
(1) Pain relief at 2 hours postdose, Stratified Percentage Difference (Zavegepant − Placebo) [1, 12]: 7.5%
(3) Rescue medication use within 24 hours postdose, Stratified Percentage Difference (Zavegepant − Placebo) [1, 12]: −7.1%
(4) Photophobia freedom at 2 hours postdose, Stratified Percentage Difference (Zavegepant − Placebo) [1, 12]: 7.4%
(6) Pain relief at 60 minutes postdose, Stratified Percentage Difference (Zavegepant − Placebo) [1, 12]: 7.8%
(8) Pain relief at 30 minutes postdose, Stratified Percentage Difference (Zavegepant − Placebo) [1, 12]: 1.9%
(10) Sustained pain relief from 2 to 24 hours postdose, Stratified Percentage Difference (Zavegepant − Placebo) [1, 12]: 8.9%
(11) Sustained pain freedom from 2 to 24 hours postdose, Stratified Percentage Difference (Zavegepant − Placebo) [1, 12]: 6.7%
(12) Sustained pain relief from 2 to 48 hours postdose, Stratified Percentage Difference (Zavegepant − Placebo) [1, 12]: 6.2%
(13) Sustained pain freedom from 2 to 48 hours postdose, Stratified Percentage Difference (Zavegepant − Placebo) [1, 12]: 5.7%
(2) Return to normal function at 2 hours posidose, Stratified Percentage Difference (Zavegepant − Placebo) [1, 13]: 7.3%
(7) Return to normal function at 60 minutes postdose, Stratified Percentage Difference (Zavegepant − Placebo) [1, 13]: 1.7%
(9) Return to normal function at 30 minutes postdose, Stratified Percentage Difference (Zavegepant − Placebo) [1, 13]: 4.5%
(5) Phonophobia freedom at 2 hours postdose, Stratified Percentage Difference (Zavegepant − Placebo) [1, 14]: 9.3%
(14) Nausca freedom at 2 hours postdose, Stratified Percentage Difference (Zavegepant − Placebo) [1, 14]: 3.7%
(9) Return to normal function at 30 minutes postdose, n/N (%) ([1]; Zavegepant 20 mg Group, intranasal single dose): 37/372 (9.9) %
secondary endpoints demonstrating early activity versus placebo ([1]; nominal p<0.05): superior to placebo on multiple secondary endpoints
durability of benefits (sustained pain freedom and pain relief 2 to 24 and 2 to 48 hours) ([1]; nominal p<0.05, 5, 10 and 20 mg (pain relief 2 to 48 h: 5 and 10 mg)): durable and sustained without rescue medication out to 48 hours
pH-solubility profile ([2]; at lower pH): > 300 mg/mL
pH-solubility profile ([2]; pH = 8.2): 105 mg/mL
ALT or AST > 3x ULN (subjects) ([3]; 5 mg (N = 388)): 0
Bilirubin > 2x ULN (subjects) ([3]; 5 mg (N = 388)): 0
ALT or AST > 3x ULN (subjects) ([3]; 10 mg (N = 394)): 0
Bilirubin > 2x ULN (subjects) ([3]; 10 mg (N = 394)): 0
ALT or AST > 3x ULN (subjects) ([3]; 20 mg (N = 403)): 0
Bilirubin > 2x ULN (subjects) ([3]; 20 mg (N = 403)): 0
ALT or AST > 3x ULN (subjects) ([3]; All zavegepant (N = 1185)): 0
Bilirubin > 2x ULN (subjects) ([3]; All zavegepant (N = 1185)): 0
hepatotoxicity signal (AST or ALT>3× ULN, total bilirubin>2× ULN) ([3]; any treatment arm): no signal of hepatoxicity
tolerability and safety ([3]; intranasal, single dose trial): well tolerated and safe
AEs mild in intensity ([3]; single dose trial): > 80%
pKa (second value) [4]: 8.8
Plasma Concentrations (Mean) ([5]; 5 mg, Day 14, 0.500 h): 8.08 ng/mL
AUC ([5]; in vivo, 5 mg): 19 ng·h/mL
AUC ([5]; in vivo, 10 mg): 30.9 ng·h/mL
AUC ([5]; in vivo, 20 mg): 87.9 ng·h/mL
urine concentrations ([5]; in vivo): below the limit of quantitation
